{
  "source": "patent US20210128667A1",
  "about": "“IMMUNOPROTEASOME INHIBITORS AND IMMUNOSUPPRESSIVE AGENT IN THE TREATMENT OF AUTOIMMUNE DISORDERS” (KEZAR LIFE SCIENCES, priority 2017, published 2021)",
  "key": {"[1]": {"tested_on": "NZB/WF1 mice with established nephritis", "assay": "NZB/W F1 mouse model of established nephritis: proteinuria (urine dipsticks) and survival", "format": "in vivo", "details": "2.5 mg/kg KZR-616 SC QW, 30 mg/kg QDx7 PO MMF, in comparison with the untreated mice", "description": "NZB/W Fl mice were purchased from Jackson Laboratories. All mice were housed in the animal facility at Kezar Life Sciences. All experiment protocols were reviewed and approved by the Kezar Committee on Animal Resources. NZB/WF1 mice with established nephritis (24 weeks of age with duratble proteinuria ≥1+ proteinuria) were treated with vehicle alone, 2.5 mg/kg KZR-616 SC QW, 30 mg/kg QDx7 PO MMF or the combination of 2.5 mg/kg KZR-616 SC QW KZR-616 and 30 mg/kg QDx7 PO MMF. Proteinuria was monitored weekly once with urine dipsticks (Uristix by Bayer) and survival was observed.\nTo investigate immunoproteasome inhibition combined with the standard of care treatment MMF, NZB/w mice were administered vehicle alone, 2.5 mg/kg KZR-616 SC QW, 30 mg/kg QDx7 PO MMF or the combination of KZR-616 and MMF."}, "[2]": {"molecular_target": "T1, immunoproteasome (Homo sapiens, UniProt P28062+P28065+P40306)", "T1 construct": "endogenous in cells", "assay": "Immunoproteasome inhibition in human cells in vitro", "format": "cell-based"}, "[3]": {"tested_on": "immune cell types", "assay": "In vitro immune cell function (cytokine production, T-cell subsets, plasma cells, autoantibodies)", "format": "cell-based"}, "[4]": {"tested_on": "immunoproteasome", "assay": "Immunoproteasome inhibition in blood and tissues after administration to monkeys", "format": "in vivo", "details": "administered to monkeys"}, "[5]": {"molecular_target": "LMP7 subunit of the immunoproteasome (Homo sapiens, UniProt P28062)", "assay": "In vitro inhibition of immunoproteasome subunits", "format": "biochemical"}, "[6]": {"molecular_target": "T2, immunoproteasome (Rattus norvegicus, UniProt P28064+P28077+Q4KM35)", "T2 construct": "from tissue; host or cells: blood and tissues of dosed rats", "assay": "Immunoproteasome inhibition in blood and tissues after administration to rats", "format": "in vivo", "details": "administered to rats"}, "[7]": {"tested_on": "non-proteasomal targets", "assay": "Broad diversity panel of biochemical assays (110 receptor/ligand and enzyme assays)"}, "[8]": {"tested_on": "immune effector cells", "details": "cited from earlier work"}, "[9]": {"tested_on": "mouse models of RA", "details": "doses one tenth of the maximum tolerated dose (MTD); cited from earlier work"}, "[10]": {"molecular_target": "immunoproteasome (Mus musculus, UniProt O35955+P28063+P28076)", "details": "upon administration to mice; cited from earlier work"}, "[11]": {"tested_on": "mouse models of multiple sclerosis and SLE", "details": "in vivo; cited from earlier work"}, "[12]": {"details": "in vivo; cited from earlier work"}, "[13]": {"tested_on": "animal models of autoimmune disorders", "details": "animal models including RA and SLE; cited from earlier work"}, "[14]": {"tested_on": "patients with refractory SLE and LN", "details": "patients who had failed standard immunosuppressive therapies; cited from earlier work"}, "[15]": {"tested_on": "immune effector cells", "details": "cited from earlier work", "remark": "listed apart in the source"}},
  "data": [
    {"molecule": "COc1ccc([C@@H](O)[C@H](NC(=O)[C@H](C)NC(=O)CN2CCOCC2)C(=O)N[C@@H](CC2=CCCC2)C(=O)[C@@]2(C)CO2)cc1", "note": "[KZR-616]", "values": [
      {"measurement": "level of proteinuria", "setting": "[1]", "result": "significantly reduced the level of proteinuria"},
      {"measurement": "survival", "setting": "[1]", "result": "increased survival"},
      {"measurement": "inhibition of the immunoproteasome", "setting": "[2]", "result": "potent and selective inhibition of the immunoproteasome"},
      {"measurement": "activity of inflammatory T-helper cell subsets", "setting": "[3]", "result": "reduces the activity of inflammatory T-helper cell subsets"},
      {"measurement": "number of regulatory T-cells", "setting": "[3]", "result": "increases the number of regulatory T-cells"},
      {"measurement": "plasma cell formation and autoantibody production", "setting": "[3]", "result": "blocks plasma cell formation and autoantibody production"},
      {"measurement": "cytokine production", "setting": "[3]; multiple immune cell types", "result": "blocks cytokine production across multiple immune cell types"},
      {"measurement": "inhibition of the immunoproteasome in blood and tissues", "setting": "[4]", "result": "potent and selective inhibition in blood and tissues"},
      {"measurement": "mechanism of inhibition of immunoproteasome subunits", "setting": "[5]", "result": "irreversible mechanism"},
      {"measurement": "inhibition of the LMP7 subunit", "setting": "[5]; in vitro, selectivity relative to(35)", "result": "potent and selective inhibition"},
      {"measurement": "inhibition of the immunoproteasome in blood and tissues", "setting": "[6]", "result": "potent and selective inhibition in blood and tissues"},
      {"measurement": "inhibition of non-proteasomal targets", "setting": "[7]", "result": "did not inhibit any non-proteasomal targets"}
    ]},
    {"molecule": "COc1c(C)c2c(c(O)c1C/C=C(\\C)CCC(=O)OCCN1CCOCC1)C(=O)OC2", "note": "[MMF, mycophenolate mofetil]", "values": [
      {"measurement": "level of proteinuria", "setting": "[1]", "result": "significantly reduced the level of proteinuria"},
      {"measurement": "survival", "setting": "[1]", "result": "increased survival"}
    ]},
    {"molecule": "COc1ccc(C[C@H](NC(=O)[C@H](C)NC(=O)CN2CCOCC2)C(=O)N[C@@H](Cc2ccccc2)C(=O)[C@]2(C)CO2)cc1", "note": "[ONX 0914]", "values": [
      {"measurement": "autoantibody formation", "setting": "[8]", "result": "blocked autoantibody formation"},
      {"measurement": "number and activity of inflammatory T-cell subsets such as Th1 and Th17", "setting": "[8]", "result": "reduced the number and activity of inflammatory T-cell subsets"},
      {"measurement": "number of regulatory T-cells (Treg)", "setting": "[8]", "result": "increased the number of regulatory T-cells"},
      {"measurement": "cytokine production", "setting": "[8]; immune effector cells", "result": "inhibited cytokine production in immune effector cells"},
      {"measurement": "joint inflammation, cytokine production and joint damage", "setting": "[9]", "result": "prevent joint-specific inflammation, reduce cytokine production, and ameliorate joint damage"},
      {"measurement": "inhibition of the immunoproteasome", "setting": "[10]", "result": "selectively inhibits the immunoproteasome"},
      {"measurement": "activity and tolerability compared with bortezomib", "setting": "[11]", "result": "equivalent activity but better tolerability than bortezomib"},
      {"measurement": "therapeutic activity", "setting": "[11]", "result": "therapeutically active"}
    ]},
    {"molecule": "CC(C)C[C@H](NC(=O)[C@H](Cc1ccccc1)NC(=O)c1cnccn1)B(O)O", "note": "[bortezomib]", "values": [
      {"measurement": "peripheral neuropathy", "setting": "[12]", "result": "dose limiting side effect of peripheral neuropathy"},
      {"measurement": "anti-inflammatory activity", "setting": "[13]", "result": "demonstrated anti-inflammatory activity"},
      {"measurement": "clinical activity", "setting": "[14]", "result": "shown to have clinical activity"},
      {"measurement": "cytokine release", "setting": "[15]", "result": "blocks cytokine release from immune effector cells"}
    ]},
    {"molecule": "CC(C)C[C@H](NC(=O)[C@H](CCc1ccccc1)NC(=O)CN1CCOCC1)C(=O)N[C@@H](Cc1ccccc1)C(=O)N[C@@H](CC(C)C)C(=O)[C@@]1(C)CO1", "note": "[carfilzomib]", "values": [
      {"measurement": "peripheral neuropathy", "setting": "[12]", "result": "Peripheral neuropathy is not induced"}
    ]}
  ]
}
